Reference: the supplement of paper PMC11061612

How the values were obtained:
Test in all cases: combination Emax (second highest fraction inhibited in the dose matrix, 72 h); higher = more inhibition; extreme values may be limits of the assay
[1] = system: MOG-G-UVW (Low Grade Glioma)
In short: (§1)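 After 24 hours at 37°C and 5% CO2 in 1536-well plates, cells in DMEM/F12 or RPMI plus 10% FBS received two-drug dose matrices for 72 hours. Viability came from CellTiter-Glo 2.0 luminescence and was scaled as inhibition, anchored at 0 by vehicle wells and at 1 by blank wells. Combination Emax is taken as the second-highest inhibition in the matrix, and Bliss excess as the observed combination effect less EA + EB − EA·EB, with EA and EB the single-agent effects.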

[2] = system: ME-180 (Cervical Carcinoma)
In short: as §1

Hey (Ovarian Carcinoma) = system: Hey (Ovarian Carcinoma)
In short: as §1

[3] = system: OE33 (Esophageal Adenocarcinoma)
In short: as §1

[4] = system: EFO-21 (Ovarian Carcinoma)
In short: as §1

[5] = system: COLO-668 (Small Cell Lung Carcinoma)
In short: as §1

[6] = system: NCI-H2122 (Lung Adenocarcinoma)
In short: as §1

[7] = system: OACM5-1 (Esophageal Adenocarcinoma)
In short: as §1

EW-1 (Ewing's Sarcoma) = system: EW-1 (Ewing's Sarcoma)
In short: as §1

[8] = system: SK-LU-1 (Lung Adenocarcinoma)
In short: as §1

[9] = system: NCI-H650 (Lung Adenocarcinoma)
In short: as §1

[10] = system: CADO-ES1 (Ewing's Sarcoma)
In short: as §1

[11] = system: MV-4-11 (Acute Myeloid Leukemia)
In short: as §1

[12] = system: NCI-H522 (Lung Adenocarcinoma)
In short: as §1

[13] = system: G-401 (Other Solid Carcinomas)
In short: as §1

[14] = system: HCC1500 (Breast Carcinoma)
In short: as §1

[15] = system: Mo-T (Other Blood Carcinomas)
In short: as §1

[16] = system: HAL-01 (B-Lymphoblastic Leukemia)
In short: as §1

[17] = system: DU-145 (Prostate Carcinoma)
In short: as §1

[18] = system: KGN (Other Solid Carcinomas)
In short: as §1

Row | Compound | combination Emax [1] | combination Emax [2] | combination Emax (Hey (Ovarian Carcinoma)) | combination Emax [3] | combination Emax [4] | combination Emax [5] | combination Emax [6] | combination Emax [7] | combination Emax (EW-1 (Ewing's Sarcoma)) | combination Emax [8] | combination Emax [9] | combination Emax [10] | combination Emax [11] | combination Emax [12] | combination Emax [13] | combination Emax [14] | combination Emax [15] | combination Emax [16] | combination Emax [17] | combination Emax [18]
1 | Cn1cnc2c(F)c(Nc3ccc(Br)cc3Cl)c(C(=O)NOCCO)cc21 [Selumetinib] + C=CCn1c(=O)c2cnc(Nc3ccc(N4CCN(C)CC4)cc3)nc2n1-c1cccc(C(C)(C)O)n1 [AZD1775] (first compound max 10 µM, partner max 1 µM) | 0.72 | 0.478 | 0.719 | 0.445 | 0.315 | 0.47 | 0.985 | 0.642 | 0.883 | 0.46 | 0.693 | 0.294 | 0.915 | 0.177 | 0.828 | 0.207 | 0.482 | 0.876 | 0.239 | 0.695
2 | C=CCn1c(=O)c2cnc(Nc3ccc(N4CCN(C)CC4)cc3)nc2n1-c1cccc(C(C)(C)O)n1 [AZD1775] + C[C@@H]1COCCN1C2=NC(=NC(=C2)C3(CC3)[S@](=N)(=O)C)C4=C5C=CNC5=NC=C4 [AZD6738] (first compound max 1 µM, partner max 10 µM) | 0.922 | 0.802 | 0.809 | 0.819 | 0.543 | 0.893 | 0.961 | 0.778 | 0.935 | 0.488 | 0.329 | 0.901 | 0.991 | 0.487 | 0.793 | 0.382 | 0.61 | 1 | 0.604 | 0.922
3 | COc1nnc2ccc(N3CCC(c4ccc(OCCN5CCN(C)C(=O)[C@H]5C)cc4)CC3)nn12 [AZD5153] + CC1(C)CCC(CN2CCN(c3ccc(C(=O)NS(=O)(=O)c4ccc(NCC5CCOCC5)c([N+](=O)[O-])c4)c(Oc4cnc5[nH]ccc5c4)c3)CC2)=C(c2ccc(Cl)cc2)C1 [Venetoclax] (first compound max 1 µM, 7x7, partner max 1 µM) | 0.715 | 0.49 | 0.523 | 0.19 | 0.425 | 0.811 | 0.78 | 0.607 | 0.56 | 0.358 | 0.381 | 0.665 | 1 | 0.415 | 0.821 | 0.755 | 0.611 | 0.979 | 0.288 | 0.729
4 | C=CCn1c(=O)c2cnc(Nc3ccc(N4CCN(C)CC4)cc3)nc2n1-c1cccc(C(C)(C)O)n1 [AZD1775] + O=C(c1cc(Cc2n[nH]c(=O)c3ccccc23)ccc1F)N1CCN(C(=O)C2CC2)CC1 [Olaparib] (first compound max 1 µM, partner max 10 µM) | 0.864 | 0.457 | 0.552 | 0.507 | 0.308 | 0.566 | 0.834 | 0.353 | 0.907 | 0.436 | 0.316 | 0.636 | 0.978 | 0.363 | 0.769 | 0.227 | 0.456 | 0.935 | 0.255 | 0.745
5 | COc1nnc2ccc(N3CCC(c4ccc(OCCN5CCN(C)C(=O)[C@H]5C)cc4)CC3)nn12 [AZD5153] + Cn1cnc2c(F)c(Nc3ccc(Br)cc3Cl)c(C(=O)NOCCO)cc21 [Selumetinib] (first compound max 1 µM, 7x7, partner max 10 µM) | 0.658 | 0.592 | 0.726 | 0.414 | 0.439 | 0.899 | 1 | 0.663 | 0.618 | 0.46 | 0.656 | 0.444 | 1 | 0.469 | 0.841 | 0.387 | 0.659 | 0.849 | 0.28 | 0.729
6 | NC1(C(=O)N[C@@H](CCO)c2ccc(Cl)cc2)CCN(c2ncnc3[nH]ccc23)CC1 [Capivasertib] + C[C@@H]1COCCN1C2=NC(=NC(=C2)C3(CC3)[S@](=N)(=O)C)C4=C5C=CNC5=NC=C4 [AZD6738] (first compound max 10 µM, 7x7, partner max 10 µM) | 0.796 | 0.755 | 0.777 | 0.748 | 0.415 | 0.677 | 0.974 | 0.774 | 0.938 | 0.511 | 0.406 | 0.729 | 0.975 | 0.251 | 0.751 | 0.335 | 0.417 | 0.97 | 0.398 | 0.9
7 | Cc1c2c(nn1C)CSCc1cc(n(C)n1)CSc1cc(c3ccccc3c1)OCCCc1c(C(=O)O)n(C)c3c-2c(Cl)ccc13 [AZD5991] + CCN(CCO)CCCOc1ccc2c(Nc3cc(CC(=O)Nc4cccc(F)c4)[nH]n3)ncnc2c1 [AZD2811] (first compound max 1 µM, 7x7, partner max 1 µM) | 0.696 | 0.343 | 0.331 | 0.139 | 0.343 | 0.235 | 0.883 | 0.946 | 0.482 | 0.41 | 0.61 | 0.908 | 1 | 0.657 | 0.615 | 0.53 | 0.189 | 0.468 | 0.23 | 0.574
8 | COc1nnc2ccc(N3CCC(c4ccc(OCCN5CCN(C)C(=O)[C@H]5C)cc4)CC3)nn12 [AZD5153] + C=CCn1c(=O)c2cnc(Nc3ccc(N4CCN(C)CC4)cc3)nc2n1-c1cccc(C(C)(C)O)n1 [AZD1775] (first compound max 1 µM, partner max 1 µM) | 0.711 | 0.68 | 0.655 | 0.435 | 0.51 | 0.665 | 0.993 | 0.869 | 0.883 | 0.442 | 0.487 | 0.387 | 1 | 0.51 | 0.914 | 0.402 | 0.729 | 0.88 | 0.316 | 0.781
9 | CCN(CCO)CCCOc1ccc2c(Nc3cc(CC(=O)Nc4cccc(F)c4)[nH]n3)ncnc2c1 [AZD2811] + C[C@@H]1COCCN1C2=NC(=NC(=C2)C3(CC3)[S@](=N)(=O)C)C4=C5C=CNC5=NC=C4 [AZD6738] (first compound max 1 µM, 7x7, partner max 10 µM) | 0.783 | 0.43 | 0.711 | 0.8 | 0.45 | 0.644 | 0.902 | 0.44 | 0.852 | 0.473 | 0.117 | 0.843 | 0.998 | 0.142 | 0.536 | 0.312 | 0.556 | 0.99 | 0.596 | 0.822
10 | CN(C)CCCOc1ccc(-c2ccc3ncc4c(c3c2)n(C2CCOCC2)c(=O)n4C)cn1 [AZD0156] + CCN(CCO)CCCOc1ccc2c(Nc3cc(CC(=O)Nc4cccc(F)c4)[nH]n3)ncnc2c1 [AZD2811] (first compound max 1 µM, 7x7, partner max 1 µM) | 0.615 | 0.192 | 0.229 | 0.068 | 0.116 | 0.0922 | 0.358 | 0.232 | 0.301 | 0.143 | 0.124 | 0.323 | 0.93 | 0.0622 | 0.309 | 0.298 | 0.137 | 0.435 | 0.134 | 0.551
11 | CN(C)CCCOc1ccc(-c2ccc3ncc4c(c3c2)n(C2CCOCC2)c(=O)n4C)cn1 [AZD0156] + C=CCn1c(=O)c2cnc(Nc3ccc(N4CCN(C)CC4)cc3)nc2n1-c1cccc(C(C)(C)O)n1 [AZD1775] (first compound max 1 µM, partner max 1 µM) | 0.744 | 0.423 | 0.495 | 0.472 | 0.472 | 0.405 | 0.793 | 0.414 | 0.886 | 0.384 | 0.263 | 0.39 | 0.924 | 0.225 | 0.646 | 0.283 | 0.402 | 0.917 | 0.239 | 0.806
12 | COc1nnc2ccc(N3CCC(c4ccc(OCCN5CCN(C)C(=O)[C@H]5C)cc4)CC3)nn12 [AZD5153] + Cc1c2c(nn1C)CSCc1cc(n(C)n1)CSc1cc(c3ccccc3c1)OCCCc1c(C(=O)O)n(C)c3c-2c(Cl)ccc13 [AZD5991] (first compound max 1 µM, 7x7, partner max 1 µM) | 0.763 | 0.438 | 0.598 | 0.242 | 0.414 | 0.564 | 0.913 | 0.952 | 0.751 | 0.388 | 0.768 | 0.659 | 1 | 0.942 | 0.956 | 0.696 | 0.616 | 0.873 | 0.242 | 0.742
13 | NC1(C(=O)N[C@@H](CCO)c2ccc(Cl)cc2)CCN(c2ncnc3[nH]ccc23)CC1 [Capivasertib] + CC(=O)c1c(C)c2cnc(Nc3ccc(N4CCNCC4)cn3)nc2n(C2CCCC2)c1=O [Palbociclib] (first compound max 10 µM, 7x7, partner max 10 µM) | 0.727 | 0.629 | 0.578 | 0.259 | 0.101 | 0.437 | 0.793 | 0.721 | 0.608 | 0.4 | 0.262 | 0.274 | 0.861 | 0.172 | 0.898 | 0.239 | 0.4 | 0.69 | 0.166 | 0.724
